Blank lines part the entries; values can stand above or below the substance they belong to.
Key:
[1] = tested on: adipocyte protein 2 (AP2); assay: AP2 gene expression in muscle tissue of db/db mouse model (RT-PCR); type: in vivo; conditions: muscle tissue of db/db mice, 2.5 mg/kg i.p. daily, 8 weeks
Procedure: (§1) The obesity-improving effect of a peptide was confirmed by inducing body weight gain in an animal model in which diabetes was induced due to the defect in a leptin receptor. Specifically, C57BLKS/J-db/db 5-week-old male mice were purchased from the Central Laboratory Animal Inc., provided with a normal diet for one week, and used after an acclimation period. The breeding environment was maintained at 18 to 24° C. and a humidity of 50 to 60%, and during the acclimation period and the experimental period, free feeding was implemented with free access to normal feed and water.
(§2) The mice that underwent the acclimation period were divided into a control and a peptide-treated group. The control group was administered PBS, and the peptide-treated group was administered Peptide No. 7 or 8 (2.5 mg/kg) intraperitoneally every day for a total of 8 weeks.
(§3) As a result of RT-PCR, it was confirmed that, by the treatment of Peptide No. 7 or 8, the expression of adipocyte protein 2 (AP2) and CCAAT enhancer binding protein α (C/EBPα) genes, which are involved in lipid accumulation, was reduced, and the expression of a peroxisome proliferator-activated receptor α (PPARα) gene, involved in fatty acid oxidation, was increased. […]

[2] = tested on: peroxisome proliferator-activated receptor α (PPARα); assay: PPARα gene expression in muscle tissue of db/db mouse model (RT-PCR); type: in vivo; conditions: muscle tissue of db/db mice, 2.5 mg/kg i.p. daily, 8 weeks
Procedure: as §1, §2, §3

[3] = tested on: Muscle RING Finger-1 (Murf-1); assay: Murf-1 gene expression in muscle tissue of db/db mouse model (RT-PCR); type: in vivo; conditions: muscle tissue of db/db mice, 2.5 mg/kg i.p. daily, 8 weeks
Procedure: as §1, §2, §3

S6 = S6 phosphorylation in L6 skeletal muscle cells (Western blot); type: cell-based; conditions: 100 nM, 1 hour; for phosphorylation of S6 (in words): FIG. 9
Procedure: (§4) The effect of the peptide of the present invention on muscles was confirmed. After culturing L6 skeletal muscle cells in a 6-well plate, the cells were starved with 0.5% FBS. Afterward, 100 nM of each peptide was treated for 1 hour, and proteins were collected and subjected to Western blot.

[4] = tested on: CCAAT enhancer binding protein α (C/EBPα); assay: C/EBPα gene expression in muscle tissue of db/db mouse model (RT-PCR); type: in vivo; conditions: muscle tissue of db/db mice, 2.5 mg/kg i.p. daily, 8 weeks
Procedure: as §1, §2, §3

FoxO1 = FoxO1 phosphorylation and total FoxO1 in L6 skeletal muscle cells (Western blot); type: cell-based; conditions: 100 nM, 1 hour
Procedure: as §4

change in C/EBPα gene expression [4]: −18.6%
Substance: AGSIREAGGAFGKREQAEEERYFR (listed as Homo sapiens) [No. 7]
change in AP2 gene expression [1]: −52.5%
change in PPARα gene expression [2]: +94.1%
change in Murf-1 gene expression [3]: −90.1%
phosphorylation of S6 (in words) (S6): increased

Substance: AQSREQLAALKK (listed as Homo sapiens) [No. 5]
increase of phosphorylation of the S6 protein (S6): 494%

Substance: EQAEEER (listed as Homo sapiens) [No. 2]
increase of phosphorylation of the S6 protein (S6): 365%

Substance: EQAEEERYFR (listed as Homo sapiens) [No. 4]
increase of phosphorylation of the S6 protein (S6): 224%

Substance: REAGGAFGKR (listed as Homo sapiens) [No. 3]
phosphorylation of S6 (in words) (S6): increased

change in C/EBPα gene expression [4]: −45.5%
Substance: VDRGAGSIREAGGAFGKREQAEEERYFR (listed as Homo sapiens) [No. 8]
change in AP2 gene expression [1]: −54.7%
change in PPARα gene expression [2]: +12.9%
change in Murf-1 gene expression [3]: −36.0%
increase of phosphorylation of the S6 protein (S6): 414%

Substance: YFR (listed as Homo sapiens) [No. 1]
expression level of total FoxO1 (FoxO1): decreased
phosphorylation of FoxO1 (FoxO1): increased
increase of phosphorylation of the S6 protein (S6): 188%

Substance: YFRAQSREQLAALKKHH (listed as Homo sapiens) [No. 6]
phosphorylation of S6 (in words) (S6): increased

From US20240342238A1, “PEPTIDE HAVING OBESITY AND MUSCLE LOSS INHIBITORY ACTIVITIES, AND USE THEREOF” (Korea University Research and Business Foundation, priority 2021, published 2024)
